Data from the supplement of paper PMC10307832.

What was measured:
Assay in all cases: relative viability (nuclei count vs DMSO), 5 days (fraction); higher = more cells survive
[1] = compound: Cn1cc(-c2cnn3c(N)c(Br)c([C@@H]4CCCNC4)nc23)cn1 + Cc1nc(Nc2ncc(C(=O)Nc3c(C)cccc3Cl)s2)cc(N2CCN(CCO)CC2)n1 [Dasatinib] (partner 0.075 µM)
Method in brief: (§1)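 Relative viability divides the nuclei count in treated wells by that in vehicle wells. Lung cancer cell lines were seeded in 1536-well plates, dosed by pin tool the next day, and fixed and stained after 5 days in one step with final 0.05% Triton X-100, 1% formaldehyde and 1 ug/ml Hoechst. Dosing was a single drug or a fixed anchor-drug dose plus five library-drug doses (not always all listed) in √10 steps, and values are medians of duplicate plates imaged at 4×.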

[2] = compound: Cn1cc(-c2cnn3c(N)c(Br)c([C@@H]4CCCNC4)nc23)cn1 + CC1(C)CCC(c2ccc(Cl)cc2)=C(CN2CCN(c3ccc(C(=O)NS(=O)(=O)c4ccc(N[C@H](CCN5CCOCC5)CSc5ccccc5)c(S(=O)(=O)C(F)(F)F)c4)cc3)CC2)C1 [Navitoclax] (partner 0.5 µM)
Method in brief: as §1

[3] = compound: Cn1cc(-c2cnn3c(N)c(Br)c([C@@H]4CCCNC4)nc23)cn1 + O=C(CCCCCCC(=O)Nc1ccccc1)NO [Vorinostat] (partner 1 µM)
Method in brief: as §1

[4] = compound: Cn1cc(-c2cnn3c(N)c(Br)c([C@@H]4CCCNC4)nc23)cn1 + C[C@@H](Oc1cc(-c2cnn(C3CCNCC3)c2)cnc1N)c1c(Cl)ccc(F)c1Cl [Crizotinib] (partner 1 µM)
Method in brief: as §1

| Cell Line | relative viability ([1]; first compound 0.05 µM) | relative viability ([1]; first compound 0.1581 µM) | relative viability ([1]; first compound 0.5 µM) | relative viability ([1]; first compound 1.581 µM) | relative viability ([1]; first compound 5 µM) | relative viability ([2]; first compound 0.05 µM) | relative viability ([2]; first compound 0.1581 µM) | relative viability ([2]; first compound 0.5 µM) | relative viability ([2]; first compound 1.581 µM) | relative viability ([2]; first compound 5 µM) | relative viability ([3]; first compound 0.05 µM) | relative viability ([3]; first compound 0.1581 µM) | relative viability ([3]; first compound 0.5 µM) | relative viability ([3]; first compound 1.581 µM) | relative viability ([3]; first compound 5 µM) | relative viability ([4]; first compound 0.05 µM) | relative viability ([4]; first compound 0.1581 µM) | relative viability ([4]; first compound 0.5 µM) | relative viability ([4]; first compound 1.581 µM) | relative viability ([4]; first compound 5 µM) |
| --- | --- | --- | --- | --- | --- | --- | --- | --- | --- | --- | --- | --- | --- | --- | --- | --- | --- | --- | --- | --- |
| H3255 | 0.313 | 0.379 | 0.39 | 0.446 | 0.267 | 0.561 | 0.507 | 0.379 | 0.531 | 0.29 | 0.738 | 0.872 | 0.914 | 0.746 | 0.411 | 0.799 | 0.852 | 0.942 | 0.729 | 0.5 |
| EPLC-272H | 0.34 | 0.339 | 0.333 | 0.286 | 0.162 | 1.2 | 1.1 | 1.2 | 0.966 | 0.969 | 0.571 | 0.275 | 0.239 | 0.266 | 0.15 | 0.943 | 1.07 | 1 | 0.945 | 0.826 |
| PC-3 [JPC-3] | 1.02 | 1.09 | 0.826 | 0.775 | 1.01 | 0.75 | 0.899 | 0.735 | 0.832 | 0.899 | 0.656 | 0.747 | – | 0.834 | 0.566 | 1 | 1.01 | 1.02 | 0.835 | 1.12 |
| NCI-H1793 | 0.449 | 0.416 | 0.306 | 0.385 | 0.184 | 0.43 | 0.517 | 0.386 | 0.383 | 0.292 | 0.839 | 0.717 | 0.856 | 0.469 | 0.181 | – | – | – | – | – |
| EKVX | 0.376 | 0.549 | 0.54 | 0.496 | 0.578 | 0.828 | 1.13 | 0.911 | 0.918 | 0.782 | 0.736 | 0.723 | 0.712 | 0.638 | 0.691 | 0.942 | 1.27 | 1.09 | 0.821 | 0.945 |
| ChaGo-K-1 | 0.565 | 0.564 | 0.606 | 0.478 | 0.353 | 0.966 | 0.967 | 0.981 | 0.737 | 0.607 | 0.736 | 0.785 | 0.779 | 0.687 | 0.753 | 1.15 | 1.36 | 1.24 | 0.92 | 1.05 |
| NCI-H23 | 0.851 | 0.999 | 0.687 | 0.585 | 0.18 | 1.01 | 1.04 | 0.72 | 0.602 | 0.342 | 0.547 | 0.508 | 0.424 | 0.206 | 0.125 | 0.444 | 0.534 | 0.437 | 0.322 | 0.183 |
| EMC-BAC-2 | 0.315 | 0.328 | 0.333 | 0.342 | 0.25 | 1.26 | 1.25 | 1.14 | 1.01 | 1.43 | 0.275 | 0.351 | 0.35 | 0.46 | 0.23 | 0.73 | 0.769 | 0.715 | 0.646 | 0.703 |
| LOU-NH91 | 0.561 | 0.506 | 0.514 | 0.519 | 0.48 | 0.732 | 0.666 | 0.644 | 0.67 | 0.474 | 0.849 | 0.911 | 0.908 | 0.863 | 0.703 | 0.727 | 0.724 | 0.739 | 0.713 | 0.626 |
| LU99A | 0.397 | 0.51 | 0.485 | 0.405 | 0.244 | 0.962 | 0.875 | 0.801 | 0.699 | 0.601 | 0.46 | 0.469 | 0.452 | 0.36 | 0.216 | 0.55 | 0.573 | 0.551 | 0.482 | 0.31 |
| NCI-H1395 | 0.397 | 0.463 | 0.399 | 0.368 | 0.351 | 1.18 | 0.698 | 0.953 | 0.68 | 0.423 | 0.533 | 0.427 | 0.556 | 0.49 | 0.317 | – | – | – | – | – |
| NCI-H460 | 0.533 | 0.437 | 0.483 | 0.317 | 0.144 | 1.04 | 1.32 | 0.972 | 0.749 | 0.448 | 0.926 | 1.1 | 0.245 | 0.405 | 0.111 | 1.01 | 1.36 | 1.03 | 0.842 | 0.3 |
| 201T | 0.614 | 0.568 | 0.651 | 0.587 | 0.439 | 1.14 | 1.18 | 1.16 | 1.32 | 1.22 | 0.938 | 1.05 | 0.996 | 0.897 | 0.549 | 1.03 | 1.03 | 1.06 | 1.05 | 1.07 |
| NCI-H1944 | 0.23 | 0.206 | 0.197 | 0.192 | 0.179 | 0.92 | 1.01 | 1.05 | 1.01 | 0.858 | 0.566 | 0.575 | 0.463 | 0.452 | 0.219 | 0.951 | 1.21 | 1.09 | 0.931 | 0.717 |
| NCI-H2405 | 0.21 | 0.458 | 0.205 | 0.201 | 0.203 | 0.815 | 0.976 | 0.904 | 0.867 | 0.624 | 0.962 | 1.01 | 0.951 | 0.847 | 0.668 | 0.884 | 0.849 | 0.794 | 0.765 | 0.611 |
| NCI-H1703 | – | – | – | – | – | 1.08 | 0.441 | 0.309 | 0.147 | 0.122 | – | – | – | – | – | 0.671 | 0.363 | 0.325 | 0.18 | 0.134 |
| NCI-H1755 | 0.4 | 0.42 | 0.42 | 0.407 | 0.253 | 1.12 | 1.03 | 0.961 | 0.994 | 0.969 | 0.869 | 0.828 | 0.653 | 0.642 | 0.503 | 0.988 | 1.03 | 0.932 | 0.845 | 0.602 |
